System: KRAS patient-derived spheroids with HUVEC/MSC, viability
Test: Anticancer human tumor 323965-272-R-J2-PDC patient-derived pancreatic carcinoma cell line growth inhibition [KRAS2]
Conditions: for IC50: curve of first compound; for viability, T/C: stronger effect = lower value
Outline: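 KRAS-mutant tumor cells were grown as spheroids with HUVEC endothelial cells and human MSCs as stroma. Targeted agents were tested alone and with KRAS pathway inhibitors. Doses started at or near clinical Cmax, or 10 microM, descending half-log.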

[1] = second compound 0.1 µM, first compound 0.0316 µM
[2] = second compound 0.1 µM, first compound 0.1 µM
[3] = second compound 0.1 µM, first compound 0.316 µM
[4] = second compound 0.1 µM, first compound 1 µM
[5] = second compound 0.1 µM, first compound 3.16 µM
[6] = second compound 0.1 µM, first compound 10 µM
[7] = second compound 0.316 µM, first compound 0.0316 µM
[8] = second compound 0.316 µM, first compound 0.1 µM
[9] = second compound 0.316 µM, first compound 0.316 µM
[10] = second compound 0.316 µM, first compound 1 µM
[11] = second compound 0.316 µM, first compound 3.16 µM
[12] = second compound 0.316 µM, first compound 10 µM
[13] = second compound 1 µM, first compound 0.0316 µM
[14] = second compound 1 µM, first compound 0.1 µM
[15] = second compound 1 µM, first compound 0.316 µM
[16] = second compound 1 µM, first compound 1 µM
[17] = second compound 1 µM, first compound 3.16 µM
[18] = second compound 1 µM, first compound 10 µM
[19] = second compound 3.16 µM, first compound 0.0316 µM
[20] = second compound 3.16 µM, first compound 0.1 µM
[21] = second compound 3.16 µM, first compound 0.316 µM
[22] = second compound 3.16 µM, first compound 1 µM
[23] = second compound 3.16 µM, first compound 3.16 µM
[24] = second compound 3.16 µM, first compound 10 µM
[25] = second compound 10 µM, first compound 0.0316 µM
[26] = second compound 10 µM, first compound 0.1 µM
[27] = second compound 10 µM, first compound 0.316 µM
[28] = second compound 10 µM, first compound 1 µM
[29] = second compound 10 µM, first compound 3.16 µM
[30] = second compound 10 µM, first compound 10 µM
[31] = second compound 0.1 µM, first compound 0.01 µM
[32] = second compound 0.316 µM, first compound 0.01 µM
[33] = second compound 1 µM, first compound 0.01 µM
[34] = second compound 3.16 µM, first compound 0.01 µM
[35] = second compound 10 µM, first compound 0.01 µM
[36] = second compound 0.1 µM, first compound 0.00316 µM
[37] = second compound 0.316 µM, first compound 0.00316 µM
[38] = second compound 1 µM, first compound 0.00316 µM
[39] = second compound 3.16 µM, first compound 0.00316 µM
[40] = second compound 10 µM, first compound 0.00316 µM
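Further: spheroids exposed to agents for 7 days.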
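Wherever viability, T/C is given: 100% = DMSO vehicle control viability.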

SMILES: CC(C)NCC(C(=O)N1CCN(c2ncnc3c2C(C)CC3O)CC1)c1ccc(Cl)cc1 (stereo not given) + COc1cc2nc(C)nc(NC(C)c3cc(N)cc(C(F)(F)F)c3)c2cc1OC1CCOC1
- IC50 (second compound 0.1 µM): 708 nM
- IC50 (second compound 0.316 µM): 541 nM
- IC50 (second compound 1 µM): 207 nM
- IC50 (second compound 3.16 µM): 123 nM
- IC50 (second compound 10 µM): 200 nM
- viability, T/C [1]: 84.9%
- viability, T/C [2]: 76%
- viability, T/C [3]: 59.7%
- viability, T/C [4]: 45.4%
- viability, T/C [5]: 37.2%
- viability, T/C [6]: 31.3%
- viability, T/C [7]: 72.1%
- viability, T/C [8]: 71.1%
- viability, T/C [9]: 56.2%
- viability, T/C [10]: 42.2%
- viability, T/C [11]: 28%
- viability, T/C [12]: 24.5%
- viability, T/C [13]: 72.3%
- viability, T/C [14]: 67.3%
- viability, T/C [15]: 39.5%
- viability, T/C [16]: 30.1%
- viability, T/C [17]: 27.8%
- viability, T/C [18]: 22.6%
- viability, T/C [19]: 61.4%
- viability, T/C [20]: 53%
- viability, T/C [21]: 38.2%
- viability, T/C [22]: 28.6%
- viability, T/C [23]: 24.8%
- viability, T/C [24]: 21.8%
- viability, T/C [25]: 57%
- viability, T/C [26]: 68.9%
- viability, T/C [27]: 41.4%
- viability, T/C [28]: 39%
- viability, T/C [29]: 28.4%
- viability, T/C [30]: 26.3%

SMILES: CC1COCCN1c1cc(-c2ccnn2C)c2ccnc(-c3ccn[nH]3)c2n1 (stereo not given) + COc1cc2nc(C)nc(NC(C)c3cc(N)cc(C(F)(F)F)c3)c2cc1OC1CCOC1
- IC50 (second compound 0.1 µM): 14.9 nM
- IC50 (second compound 0.316 µM): 11 nM
- IC50 (second compound 1 µM): 11.3 nM
- IC50 (second compound 3.16 µM): 10.5 nM
- IC50 (second compound 10 µM): < 10 nM
- viability, T/C [31]: 62%
- viability, T/C [1]: 26.8%
- viability, T/C [2]: 16.5%
- viability, T/C [3]: 12.8%
- viability, T/C [4]: 11.5%
- viability, T/C [5]: 12.2%
- viability, T/C [32]: 52.5%
- viability, T/C [7]: 24.2%
- viability, T/C [8]: 13.1%
- viability, T/C [9]: 12%
- viability, T/C [10]: 11.6%
- viability, T/C [11]: 11.6%
- viability, T/C [33]: 53.5%
- viability, T/C [13]: 21.4%
- viability, T/C [14]: 12.4%
- viability, T/C [15]: 10.3%
- viability, T/C [16]: 10%
- viability, T/C [17]: 11%
- viability, T/C [34]: 51.4%
- viability, T/C [19]: 19.5%
- viability, T/C [20]: 9.99%
- viability, T/C [21]: 9.71%
- viability, T/C [22]: 9.06%
- viability, T/C [23]: 9.91%
- viability, T/C [35]: 41.9%
- viability, T/C [25]: 20.9%
- viability, T/C [26]: 9.39%
- viability, T/C [27]: 9.15%
- viability, T/C [28]: 7.92%
- viability, T/C [29]: 6.55%

SMILES: CCN1CCN(Cc2ccc(Nc3ncc(F)c(-c4cc(F)c5nc(C)n(C(C)C)c5c4)n3)nc2)CC1 + COc1cc2nc(C)nc(NC(C)c3cc(N)cc(C(F)(F)F)c3)c2cc1OC1CCOC1
- IC50 (second compound 0.1 µM): 90.2 nM
- IC50 (second compound 0.316 µM): 25.9 nM
- IC50 (second compound 1 µM): 32.6 nM
- IC50 (second compound 3.16 µM): 21.9 nM
- IC50 (second compound 10 µM): 75.6 nM
- viability, T/C [36]: 85.5%
- viability, T/C [31]: 78.3%
- viability, T/C [1]: 59.5%
- viability, T/C [2]: 48.2%
- viability, T/C [3]: 44.4%
- viability, T/C [4]: 51.4%
- viability, T/C [37]: 75.2%
- viability, T/C [32]: 59%
- viability, T/C [7]: 50%
- viability, T/C [8]: 41.7%
- viability, T/C [9]: 37.8%
- viability, T/C [10]: 48.3%
- viability, T/C [38]: 65.7%
- viability, T/C [33]: 59.9%
- viability, T/C [13]: 51.4%
- viability, T/C [14]: 42.9%
- viability, T/C [15]: 41%
- viability, T/C [16]: 48.3%
- viability, T/C [39]: 85.2%
- viability, T/C [34]: 64%
- viability, T/C [19]: 43.8%
- viability, T/C [20]: 39.1%
- viability, T/C [21]: 32.7%
- viability, T/C [22]: 49.5%
- viability, T/C [40]: 86.6%
- viability, T/C [35]: 74%
- viability, T/C [25]: 53.4%
- viability, T/C [26]: 48.7%
- viability, T/C [27]: 39.9%
- viability, T/C [28]: 22.4%

SMILES: CCNC(=O)CC1N=C(c2ccc(Cl)cc2)c2cc(OC)ccc2-n2c(C)nnc21 (stereo not given) + COc1cc2nc(C)nc(NC(C)c3cc(N)cc(C(F)(F)F)c3)c2cc1OC1CCOC1
- IC50 (second compound 0.1 µM): 247 nM
- IC50 (second compound 0.316 µM): 246 nM
- IC50 (second compound 1 µM): 238 nM
- IC50 (second compound 3.16 µM): 189 nM
- IC50 (second compound 10 µM): 170 nM
- viability, T/C [1]: 80.3%
- viability, T/C [2]: 68.8%
- viability, T/C [3]: 44.2%
- viability, T/C [4]: 34.2%
- viability, T/C [5]: 30.3%
- viability, T/C [6]: 28.9%
- viability, T/C [7]: 69.8%
- viability, T/C [8]: 64.2%
- viability, T/C [9]: 45.4%
- viability, T/C [10]: 32.5%
- viability, T/C [11]: 26.8%
- viability, T/C [12]: 25.2%
- viability, T/C [13]: 76.3%
- viability, T/C [14]: 65.3%
- viability, T/C [15]: 44.8%
- viability, T/C [16]: 32%
- viability, T/C [17]: 30.2%
- viability, T/C [18]: 25.5%
- viability, T/C [19]: 74.5%
- viability, T/C [20]: 58.8%
- viability, T/C [21]: 43.9%
- viability, T/C [22]: 29.3%
- viability, T/C [23]: 26.2%
- viability, T/C [24]: 26.6%
- viability, T/C [25]: 72.8%
- viability, T/C [26]: 60.4%
- viability, T/C [27]: 37.7%
- viability, T/C [28]: 29%
- viability, T/C [29]: 28%
- viability, T/C [30]: 25.7%

SMILES: Cn1nccc1Nc1nccc(-c2cc3c(s2)C(C)(C)N(CCN2CCOCC2)C3=O)n1 + COc1cc2nc(C)nc(NC(C)c3cc(N)cc(C(F)(F)F)c3)c2cc1OC1CCOC1
- IC50 (second compound 0.1 µM): 343 nM
- IC50 (second compound 0.316 µM): 258 nM
- IC50 (second compound 1 µM): 188 nM
- IC50 (second compound 3.16 µM): 324 nM
- IC50 (second compound 10 µM): 358 nM
- viability, T/C [1]: 70.7%
- viability, T/C [2]: 76.1%
- viability, T/C [3]: 50.3%
- viability, T/C [4]: 38.7%
- viability, T/C [5]: 30.8%
- viability, T/C [6]: 29.9%
- viability, T/C [7]: 75.3%
- viability, T/C [8]: 61.8%
- viability, T/C [9]: 48.1%
- viability, T/C [10]: 34.8%
- viability, T/C [11]: 30.6%
- viability, T/C [12]: 26.1%
- viability, T/C [13]: 65.9%
- viability, T/C [14]: 57.8%
- viability, T/C [15]: 43%
- viability, T/C [16]: 35.6%
- viability, T/C [17]: 30%
- viability, T/C [18]: 27.4%
- viability, T/C [19]: 70.7%
- viability, T/C [20]: 68.1%
- viability, T/C [21]: 46.3%
- viability, T/C [22]: 38%
- viability, T/C [23]: 29.1%
- viability, T/C [24]: 22.6%
- viability, T/C [25]: 75.5%
- viability, T/C [26]: 66.9%
- viability, T/C [27]: 51.7%
- viability, T/C [28]: 36.7%
- viability, T/C [29]: 22.7%
- viability, T/C [30]: 24.9%

SMILES: Cn1ncnc1[C@H]1c2n[nH]c(=O)c3cc(F)cc(c23)N[C@@H]1c1ccc(F)cc1 + COc1cc2nc(C)nc(NC(C)c3cc(N)cc(C(F)(F)F)c3)c2cc1OC1CCOC1
- IC50 (second compound 0.1 µM): > 100 nM
- IC50 (second compound 0.316 µM): > 100 nM
- IC50 (second compound 1 µM): > 100 nM
- IC50 (second compound 3.16 µM): > 100 nM
- IC50 (second compound 10 µM): > 100 nM
- viability, T/C (second compound 0.1 µM, first compound 0.000316 µM): 85.1%
- viability, T/C (second compound 0.1 µM, first compound 0.001 µM): 82.1%
- viability, T/C [36]: 86.3%
- viability, T/C [31]: 73.6%
- viability, T/C [1]: 76%
- viability, T/C [2]: 70%
- viability, T/C (second compound 0.316 µM, first compound 0.000316 µM): 79.1%
- viability, T/C (second compound 0.316 µM, first compound 0.001 µM): 81.4%
- viability, T/C [37]: 71.9%
- viability, T/C [32]: 74.9%
- viability, T/C [7]: 65.2%
- viability, T/C [8]: 61.5%
- viability, T/C (second compound 1 µM, first compound 0.000316 µM): 73.3%
- viability, T/C (second compound 1 µM, first compound 0.001 µM): 80.5%
- viability, T/C [38]: 69%
- viability, T/C [33]: 67.2%
- viability, T/C [13]: 63.8%
- viability, T/C [14]: 58.1%
- viability, T/C (second compound 3.16 µM, first compound 0.000316 µM): 79.8%
- viability, T/C (second compound 3.16 µM, first compound 0.001 µM): 71.6%
- viability, T/C [39]: 69.6%
- viability, T/C [34]: 64.4%
- viability, T/C [19]: 65.2%
- viability, T/C [20]: 61%
- viability, T/C (second compound 10 µM, first compound 0.000316 µM): 75.1%
- viability, T/C (second compound 10 µM, first compound 0.001 µM): 79.8%
- viability, T/C [40]: 76.8%
- viability, T/C [35]: 78.4%
- viability, T/C [25]: 67%
- viability, T/C [26]: 62.4%

Source: PubChem BioAssay AID1963869 (Molecular Pharmacology Branch, DTP, NCI, 2024)
